Results from PubChem BioAssay AID1549 (Sanford-Burnham Center for Chemical Genomics, 2009).
Active and inactive are the calls of the source. The rule behind the calls is not given here.

Target: Influenza A virus M2 proton channel (A/TW/4845/1999 H1N1)
Test: M2 proton channel binding, NMR based, influenza A virus H1N1 strain (AID 1549)
Details: NMR binding screen, M2 protein

| Compound | Kd |
| --- | --- |
| Cc1cc(=O)n2[nH]c(COc3ccccc3)nc2n1 | > 4 mM (inactive) |
| CCSc1nc2ccccc2[nH]1 | > 4 mM (inactive) |
| N#CCCn1c(=O)oc2ccccc21 | > 4 mM (inactive) |
| COc1cc(O)cc(/C=C/c2ccccc2)c1 | > 4 mM (inactive) |
| CC(C)=CCOc1cc2oc(=O)ccc2cc1O | > 4 mM (inactive) |
| COc1ccc(NC(=O)N2CCCCC2)cc1 | > 4 mM (inactive) |
| O=C(Nc1cccc(O)c1)c1ccccc1 | > 4 mM (inactive) |
| c1cncc(C(N2CCOCC2)N2CCOCC2)c1 | > 4 mM (inactive) |
| Nc1ccc2c(c1)N1CCN=C1S2 | > 4 mM (inactive) |
| COc1c2ccoc2cc2oc(C)cc(=O)c12 | > 4 mM (inactive) |
| Cn1ccc(NC(=S)Nc2cccc([N+](=O)[O-])c2)n1 | > 4 mM (inactive) |
| COc1cccc(Oc2ccc(N)cc2)c1 | > 4 mM (inactive) |
| C=C[C@@H](C1=CC(=O)C(OC)=C(OC)C1=O)c1ccccc1 | > 4 mM (inactive) |
| O=C(c1cc(-c2ccccc2)on1)N1CCCC1 | > 4 mM (inactive) |
| CCc1noc(C)c1C(=O)N1CCCC1 | > 4 mM (inactive) |
| Cc1nnc(NCc2ccc3c(c2)OCO3)[nH]c1=O | > 4 mM (inactive) |
| Nc1ncnc(NCCOCCO)c1[N+](=O)[O-] | > 4 mM (inactive) |
| O=C1NC(=O)C(=Cc2ccccc2)C(=O)N1 | > 4 mM (inactive) |
| COc1ccc(C2CC(=O)NN2)cc1OC1CCCC1 (stereo not drawn) | > 4 mM (inactive) |
| O=C(Nc1cnc2ccccn2c1=O)c1ccc(F)cc1 | > 4 mM (inactive) |
| O=C1NC(=O)C(C2SC(=O)NC2=O)S1 (stereo not drawn) | > 4 mM (inactive) |
| COC(=O)c1ccc2nsnc2c1 | > 4 mM (inactive) |
| Clc1ncc2[nH]cnc2n1 | > 4 mM (inactive) |
| O=C1C(=O)N(CN2CCN(CCO)CC2)c2ccccc21 | > 4 mM (inactive) |

| Compound | Kd |
| --- | --- |
| CC(=O)O[C@@H]1CC2C(C)(C)CCC(=O)[C@]2(C)C2CC[C@@]3(C)[C@H](c4ccoc4)OC(=O)C4OC43[C@@]21C (stereo partly drawn) | > 4 mM (inactive) |
| CN1CCC(NC(=O)Cc2c(F)cccc2Cl)CC1 | > 4 mM (inactive) |
| Cc1cc(NC(=O)CSc2nncn2C)no1 | > 4 mM (inactive) |
| COc1ccc(NC(=O)CSc2nccc(=O)[nH]2)cc1 | > 4 mM (inactive) |
| CC(=O)c1ccc(NC(=O)c2ocnc2C)cc1 | > 4 mM (inactive) |
| COc1ccc(C(=O)NCC(=O)O)cc1 | > 4 mM (inactive) |
| O=C(O[C@@H]1Cc2c(O)cc(O)cc2O[C@@H]1c1cc(O)c(O)c(O)c1)c1cc(O)c(O)c(O)c1 | > 4 mM (inactive) |
| O=C(O)CC1Sc2ccccc2NC1=O (stereo not drawn) | > 4 mM (inactive) |
| O=C(Nn1cnnc1)c1cc2c(s1)CCCCC2 | > 4 mM (inactive) |
| CN1CCN(c2ccc(N)cc2)CC1 | > 4 mM (inactive) |
| Oc1ccc(/C=C/c2cc(O)cc(O)c2)cc1 | > 4 mM (inactive) |
| C[C@H]1[C@H](C)CC[C@]2(C(=O)O)CC[C@]3(C)C(=CCC4[C@@]5(C)C[C@@H](O)[C@H](O)[C@@](C)(CO)C5[C@H](O)C[C@]43C)[C@H]12 (stereo partly drawn) | > 4 mM (inactive) |
| c1cncc(C2CCCCN2)c1 (stereo not drawn) | > 4 mM (inactive) |
| CC(C)=CC(=O)Nc1ccc2c(c1)OCO2 | > 4 mM (inactive) |
| CCOc1nc(C)ccc1-c1noc(-c2ccco2)n1 | > 4 mM (inactive) |
| CN(C)C1CCS(=O)(=O)C1 (stereo not drawn) | > 4 mM (inactive) |
| CN1CCC=C(C(=O)O)C1 | > 4 mM (inactive) |
| COc1ccccc1CNc1nc2nc(C)cc(=O)n2[nH]1 | > 4 mM (inactive) |
| CC(C)CCCC(C)[C@H]1CCC2C3CC=C4CC(=O)CC[C@]4(C)C3CC[C@@]21C (stereo partly drawn) | > 4 mM (inactive) |
| CC(C)(C)c1cc(CN)c(C(=O)O)o1 | > 4 mM (inactive) |
| Cc1cc(OC(=O)c2ccco2)c([N+](=O)[O-])c(=O)[nH]1 | > 4 mM (inactive) |
| Cc1nc2ccc(C(=O)N3CCSCC3)cc2s1 | > 4 mM (inactive) |
| O=S1(=O)CCC(NC(=S)Nc2ccccc2)C1 (stereo not drawn) | > 4 mM (inactive) |
| CC1=CC(=O)NC2C=CC=CC12 (stereo not drawn) | > 4 mM (inactive) |

| Compound | Kd |
| --- | --- |
| CC(C)n1c(Nn2cnnc2)nc2ccccc21 | > 4 mM (inactive) |
| O=C1c2ccccc2C(=O)N1/N=C/c1ccc[nH]1 | > 4 mM (inactive) |
| c1ccc(-c2nnc3sc(-c4ccncc4)nn23)cc1 | > 4 mM (inactive) |
| CC(=O)N1CCN(C2CCSC2)CC1 (stereo not drawn) | > 4 mM (inactive) |
| Cn1nnc2cc(CN)ccc21 | > 4 mM (inactive) |
| CC(=O)NC(NC(C)=O)c1ccccc1 | > 4 mM (inactive) |
| Fc1ccc(CN2CCCNCC2)cc1 | > 4 mM (inactive) |
| NC(=O)CN1CC(c2ccccc2)CC1=O (stereo not drawn) | > 4 mM (inactive) |
| O=c1c2ccccc2nc(-c2ccco2)n1-c1nccs1 | > 4 mM (inactive) |
| O=C(O)CCC(=O)Nc1nccs1 | > 4 mM (inactive) |
| Cc1nc(-c2ccc(C(=O)N3CCOCC3)cc2)cs1 | > 4 mM (inactive) |
| O=C(c1ccccc1)c1cncc(Br)c1 | > 4 mM (inactive) |
| O=C(O)c1cc(F)cc2c1OCOC2 | > 4 mM (inactive) |
| COCC(=O)NC1CC(C)(C)NC(C)(C)C1 | > 4 mM (inactive) |
| Cc1sc2nc3n(c(=O)c2c1C)CCCS3 | > 4 mM (inactive) |
| CC(=O)Nc1cccc(Cn2cccn2)c1 | > 4 mM (inactive) |
| COC(=O)c1ccc(N2CCCC2)nc1 | > 4 mM (inactive) |
| NC(=O)COc1ccccc1O | > 4 mM (inactive) |
| CC1(C)C[C@@H]2C(=O)CC[C@H]3O[C@]3(C)CC[C@H]21 | > 4 mM (inactive) |
| O=C(Nc1ccccc1[N+](=O)[O-])c1ccc(=O)[nH]n1 | > 4 mM (inactive) |
| C=CCCCCCCCCCCCC(O)CC(O)COC(C)=O (stereo not drawn) | > 4 mM (inactive) |
| CC1CCC2(OC1)OC1CC3C4CC[C@H]5C[C@@H](O)CC[C@]5(C)C4CC(=O)[C@]3(C)C1C2C (stereo partly drawn) | > 4 mM (inactive) |
| N#Cc1cc2c(nc1SCc1ccncc1)CCC2 | > 4 mM (inactive) |
| C=Cc1c(C)c2cc3[nH]c(cc4nc(cc5nc(cc1[nH]2)C(C)=C5CCC(=O)O)C(CCC(=O)O)=C4C)c(C)c3C=C | > 4 mM (inactive) |

| Compound | Kd |
| --- | --- |
| Nc1cccc(F)c1-c1ncon1 | > 4 mM (inactive) |
| Cc1nc2nc(Cc3ccccc3)[nH]n2c(=O)c1Cl | > 4 mM (inactive) |
| COc1cc(O)c(C)c(O)c1 | > 4 mM (inactive) |
| Cc1occc1C(=O)N1CCN(S(C)(=O)=O)CC1 | > 4 mM (inactive) |
| Nc1ccc2c(c1)OCO2 | > 4 mM (inactive) |
| CCOC(=O)c1ccc(F)cc1F | > 4 mM (inactive) |
| CNC(=O)c1cccc(NC(=S)NC)c1 | > 4 mM (inactive) |
| NCc1ccc2c(c1)OCCO2 | > 4 mM (inactive) |
| O=C(NCc1cccnc1)c1ccccn1 | > 4 mM (inactive) |
| Cc1c(CO)cnn1-c1ccc(F)cc1 | > 4 mM (inactive) |
| O=C1c2ccc(F)cc2C(=O)N1CO | > 4 mM (inactive) |
| O=C(Cc1cccs1)Nc1ccon1 | > 4 mM (inactive) |
| Cc1cn(C(=O)CN2C(=O)c3ccccc3C2=O)c(C)n1 | > 4 mM (inactive) |
| NC(=O)c1ccc(N2CCCCC2)c(N)c1 | > 4 mM (inactive) |
| c1ccc(CCc2nc(-c3ccccn3)no2)cc1 | > 4 mM (inactive) |
| Cc1cc2cc3c(C)cc(=O)oc3c(C)c2o1 | > 4 mM (inactive) |
| c1cnc(N2CCSCC2)nc1 | > 4 mM (inactive) |
| O=S(=O)(Cc1ccccc1)N1CCCCCC1 | > 4 mM (inactive) |
| Cc1ccc2nc(NC(=O)CN3CCOCC3)sc2c1 | > 4 mM (inactive) |
| c1coc(CNc2nc(-c3ccncc3)cs2)c1 | > 4 mM (inactive) |
| Cc1ccc(C(=O)Nc2nnc(-c3ccncc3)s2)o1 | > 4 mM (inactive) |
| COc1ccc(C(=O)CC(=O)O)c2c1C=CC(C)(C)O2 | > 4 mM (inactive) |
| NC(=O)c1cc(Cl)c(C(N)=O)cc1Cl | > 4 mM (inactive) |
| C=C(C)[C@@H]1CC[C@]2(CO)CC[C@]3(C)[C@H](CCC4[C@@]5(C)CC[C@H](O)C(C)(C)C5CC[C@]43C)C12 (stereo partly drawn) | > 4 mM (inactive) |

| Compound | Kd |
| --- | --- |
| CN1C2CC(OC(=O)[C@H](CO)c3ccccc3)C[C@H]1[C@H]1OC21 (stereo partly drawn) | > 4 mM (inactive) |
| CC(=O)c1c(C)nc(-c2cccs2)n1O | > 4 mM (inactive) |
| C[C@H]1C[C@@H](O)[C@]2(O)[C@@]13CC(=O)OC[C@@]2(C)[C@](C)(O)C(=O)C3 | > 4 mM (inactive) |
| CCC[C@H]1CC2=C(C[C@@H](CC)CC3=C1C(=O)OC3=O)C(=O)OC2=O | > 4 mM (inactive) |
| COc1ccccc1NC(=O)c1ccc(C)s1 | > 4 mM (inactive) |
| O=C(NCCCO)c1ccncc1 | > 4 mM (inactive) |
| COc1cc2c3cc1Oc1c(OC)c(OC)cc4c1[C@@H](Cc1cccc(c1)Oc1ccc(c(O)c1)C[C@@H]3N(C)CC2)N(C)CC4 | > 4 mM (inactive) |
| Nc1cccc(S(=O)(=O)N2CCOCC2)c1 | > 4 mM (inactive) |
| O=C(O)c1ccc2nsnc2c1 | > 4 mM (inactive) |
| Cc1cccc(NC(=O)c2ccccc2C(=O)O)c1 | > 4 mM (inactive) |
| Cc1occc1C(=O)NCc1ccccn1 | > 4 mM (inactive) |
| CC(=O)Nc1ccc(S(=O)(=O)N(C)C)cc1 | > 4 mM (inactive) |
| Nc1ccccc1N=C1CNC(=O)C1 | > 4 mM (inactive) |
| O=C(c1nc2ncccn2n1)N1CCc2ccccc2C1 | > 4 mM (inactive) |
| c1ccc(-c2nsc(N3CCNCC3)n2)cc1 | > 4 mM (inactive) |
| Nc1ccc(N2CCCCC2)cc1 | > 4 mM (inactive) |
| O=C(CSc1ncn[nH]1)c1ccccc1 | > 4 mM (inactive) |
| O/N=C1/CCCc2nonc21 | > 4 mM (inactive) |
| CN1C(=O)/C(=C/c2ccccc2O)NC1=S | > 4 mM (inactive) |
| CC(=O)Nc1ccc(S(=O)(=O)NC2=NCCS2)cc1 | > 4 mM (inactive) |
| Cn1cnnc1SCC(=O)Nc1nccs1 | > 4 mM (inactive) |
| C[C@H]1C(=O)CCC2[C@]3(C)CC[C@@]4(C)C5CC(C)(C)CC[C@]5(C)CC[C@]4(C)C3CC[C@@]21C (stereo partly drawn) | > 4 mM (inactive) |
